Laboratory results: article PMC1885804, “Preferential inhibition of xanthine oxidase by 2-amino-6-hydroxy-8-mercaptopurine and 2-amino-6-purine thiol” (BMC Biochemistry, 2007)
Read-outs that look alike come from different tables or passages of the source. Each block holds one compound with its values, some of them ahead of it.

Experiments:
[1] = target: T1, bovine XOD (Bos taurus, UniProt P80457); assay: IC50 determination, XOD-catalyzed hydroxylation (uric acid at 293 nm, 6TUA at 350 nm); type: biochemical; conditions: for IC50: 2.8 U/ml bovine XOD, ± SEM
T1 construct: Bovine milk XOD was procured from Calbiochem (La Jolla, CA, USA); purchased Calbiochem (La Jolla, CA, USA); host or cells: bovine milk
T1 sequence (P80457 whole entry): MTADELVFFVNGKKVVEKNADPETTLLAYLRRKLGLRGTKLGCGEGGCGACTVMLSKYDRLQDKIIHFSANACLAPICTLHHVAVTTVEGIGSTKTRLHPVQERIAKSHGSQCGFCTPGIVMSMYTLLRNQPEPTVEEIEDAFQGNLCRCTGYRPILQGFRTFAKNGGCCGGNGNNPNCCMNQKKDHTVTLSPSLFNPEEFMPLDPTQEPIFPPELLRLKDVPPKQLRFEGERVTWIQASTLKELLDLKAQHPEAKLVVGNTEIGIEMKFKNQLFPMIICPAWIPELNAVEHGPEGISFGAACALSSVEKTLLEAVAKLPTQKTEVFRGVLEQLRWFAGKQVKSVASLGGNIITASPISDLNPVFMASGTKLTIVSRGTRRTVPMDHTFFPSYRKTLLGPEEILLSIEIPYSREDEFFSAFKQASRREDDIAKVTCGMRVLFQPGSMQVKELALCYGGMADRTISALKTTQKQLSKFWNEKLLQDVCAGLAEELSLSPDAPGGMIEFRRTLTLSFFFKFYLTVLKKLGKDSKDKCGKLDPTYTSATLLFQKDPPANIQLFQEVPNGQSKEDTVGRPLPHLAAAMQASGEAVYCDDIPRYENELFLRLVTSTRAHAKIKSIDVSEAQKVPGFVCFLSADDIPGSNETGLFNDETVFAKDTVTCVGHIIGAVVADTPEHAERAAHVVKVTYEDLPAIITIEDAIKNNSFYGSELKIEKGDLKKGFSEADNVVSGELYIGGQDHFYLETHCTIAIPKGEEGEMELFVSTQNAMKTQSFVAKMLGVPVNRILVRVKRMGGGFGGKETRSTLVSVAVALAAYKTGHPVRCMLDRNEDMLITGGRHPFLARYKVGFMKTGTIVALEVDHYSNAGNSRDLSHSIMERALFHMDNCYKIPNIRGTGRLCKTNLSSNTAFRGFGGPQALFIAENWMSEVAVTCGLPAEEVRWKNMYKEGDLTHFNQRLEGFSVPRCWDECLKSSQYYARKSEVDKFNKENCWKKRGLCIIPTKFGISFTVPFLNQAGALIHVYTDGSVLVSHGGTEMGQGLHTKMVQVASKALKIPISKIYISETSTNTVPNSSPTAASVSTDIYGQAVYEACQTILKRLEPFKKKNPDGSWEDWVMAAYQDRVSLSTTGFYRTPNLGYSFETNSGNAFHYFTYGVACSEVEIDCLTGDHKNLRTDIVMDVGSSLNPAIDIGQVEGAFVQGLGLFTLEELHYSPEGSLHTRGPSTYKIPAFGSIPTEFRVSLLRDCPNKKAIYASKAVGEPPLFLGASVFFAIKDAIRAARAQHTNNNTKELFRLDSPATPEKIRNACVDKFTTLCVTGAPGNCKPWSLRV
Protocol: One enzyme unit is defined as amount of enzyme required to produce 1 μM uric acid per min per ml reaction mixture from 10 μM of xanthine at 30°C, pH 7.4.
The IC50 values were determined for all the purine and pyrazolopyrimidine-based compounds. […] GRAFIT software procured from Erithacus Software Limited, UK, written by Dr R.J. Leatherbarrow, was employed for calculating the IC50 values.

[2] = target: T1, bovine XOD; assay: Steady-state kinetics of XOD (Michaelis Menten and Lineweaver Burk plots); type: biochemical
Protocol: The double reciprocal Lineweaver Burk (LB) plots were drawn to find the mechanism of inhibition of XOD by APT and AHMP (Figure 6, 7, 8, 9).
(§1) Percent residual activity of formation of uric acid and 6TUA was determined by subtracting the percentage inhibition from 100%. […] Km and kcat were determined in the absence of the inhibitors.
For competitive inhibition,
-1/Km app = -1/Km (1+ [I]/Ki)
For non-competitive inhibition,
1/Vmax app = (1+ [I]/Ki)/Vmax
The modified LB equation for the mixed inhibition is
1/v = 1/Vmax app + […]/Vmax app [S]0
where, Km app and Vmax app are defined by equations (4) and (5).
Km app = Km {1+([I0]/Ki)}/{1+ ([I0]/KI)}
Vmax app = Vmax/{1+ ([I0]/KI)}
Km app is the apparent Michaelis constant and Vmax app is the apparent maximum velocity of the reaction of XOD with its substrates. Ki and KI are the inhibition constants of the inhibitors.

[3] = target: T2, XOD (Bos taurus, UniProt P80457); assay: In vitro tri-substrate (hypoxanthine, xanthine, 6MP) simulative study; type: biochemical; set-up: Bovine milk XOD was procured from Calbiochem (La Jolla, CA, USA); purchased Calbiochem (La Jolla, CA, USA); host or cells: bovine milk; conditions: xanthine and 6MP together, data not shown
T2 sequence (P80457 whole entry): as above

[4] = target: T1, bovine XOD; assay: In vitro bi-substrate (xanthine + 6MP) simulative experiment, percent residual XOD activity; type: biochemical; conditions: for Inhibition of 6MP hydroxylation, bi-substrate reaction / Inhibition of xanthine hydroxylation, bi-substrate reaction: observed for 20 min
Protocol: Percent residual activity for generation of uric acid and 6TUA was determined in the presence of various concentrations of AHMP, APT and allopurinol (Table 2). […] Absorption spectra of the time dependent XOD-mediated bi-substrate reaction in the presence of APT and AHMP are depicted in Figure 4 and Figure 5, respectively.
as §1

[5] = test system: swiss male mice; assay: Single dose acute toxicity study, fourteen days observation; type: in vivo
Protocol: In order to evaluate the toxicity of the preferential inhibitors of XOD, the single dose acute toxicity study was performed for both the preferential inhibitors on swiss male mice following a fourteen days observation period. The body weight of the animal ranged from 25–30 gm. […] Gross necropsy of each animal of all groups was conducted and organ weight was recorded after the termination of the study.

[6] = set-up: method as in doi:10.1016/0006-2952(63)90012-1, doi:10.1016/0002-9343(66)90118-5, PMID 14070377; conditions: combination with 6MP; cited from earlier work
[7] = target: T2, XOD
[8] = target: T2, XOD; set-up: Bovine milk XOD was procured from Calbiochem (La Jolla, CA, USA); purchased Calbiochem (La Jolla, CA, USA); host or cells: bovine milk; conditions: cited from earlier work
[9] = test system: XOD and XDH; set-up: method as in doi:10.1016/0006-2952(63)90012-1; conditions: at doses that produced significant toxic effects; cited from earlier work
[10] = 10 μM hypoxanthine, 0.2 M sodium phosphate buffer pH 7.4, read-out: IC50, XOD inhibition, substrate hypoxanthine
[11] = 10 μM xanthine, pH 7.4, read-out: IC50, XOD inhibition, substrate xanthine (xanthine to uric acid)
[12] = IC50, XOD inhibition, substrate 6MP (6MP to 6TUA), 10 μM 6MP, pH 7.4, 60 min reaction
[13] = read-out: % Activity with 6MP as substrate
[14] = read-out: % Activity with xanthine as substrate
[15] = read-out: % Activity with xanthine as substrate (converted)
[16] = substrate 6MP, read-out: Ki (competitive inhibition constant; Ki^1 for APT, Ki^2 for AHMP)
[17] = substrate xanthine, read-out: Ki (competitive inhibition constant; Ki^1 for APT, Ki^2 for AHMP)
[18] = single dose 2.5, 5, 10 mg/kg intravenously, mice
[19] = single dose 2.5, 5, 10 mg/kg intravenously, mice, fourteen days

Structure (SMILES): O=C(Nc1ncnc2nc[nH]c12)c1ccccc1 [6-(N-benzoylamino)purine]
- Preferential inhibition of the 6MP hydroxylation over xanthine [1]: did not exhibit any preferential inhibition

- Vmax (maximum reaction velocity) [2]: 2.85 ± 0.02 µM/min
Structure (SMILES): Sc1ncnc2nc[nH]c12 [6MP, 6-mercaptopurine]

Structure (SMILES): Nc1nc2[nH]c(S)nc2c(=O)[nH]1 [AHMP, 2-amino-6-hydroxy-8-mercaptopurine]
- Discriminatory inhibition in tri-substrate simulative study [3]: discriminatory inhibition of the 6MP to 6TUA conversion and not hypoxanthine to uric acid conversion
- Difference in the IC50 value in the first and the late phases [1]: no such difference
- Whether the compound is an XOD substrate [1]: none were found to be XOD substrates
- IC50 [1, 10]: 5.08 ± 0.04 µM
- IC50 [1, 11]: 17.7 ± 0.29 µM
- IC50 [1, 12]: 0.54 ± 0.01 µM
- Inhibition of 6MP hydroxylation, bi-substrate reaction ([4]; inhibitor 2 μM): Almost complete inhibition
- Inhibition of xanthine hydroxylation, bi-substrate reaction ([4]; inhibitor 2 μM): little inhibition
- activity at 0.5 µM [4, 13]: 59 ± 4.01%
- activity at 1 µM [4, 13]: 47%
- activity at 2.5 µM [4, 13]: 18%
- activity at 0.5 µM [4, 14]: 90 ± 1.09%
- activity at 1 µM [4, 15]: 85%
- activity at 2.5 µM [4, 15]: 64%
- Mechanism of inhibition ([2]; substrate 6MP): mixed inhibition mechanism
- Ki ([2]; substrate 6MP, read-out: KI^2 (non-competitive inhibition constant) (converted)): 0.98 µM
- Ki [2, 16]: 0.96 ± 0.01 µM
- Mechanism of inhibition ([2]; substrate xanthine): mixed type of inhibition
- Ki ([2]; substrate xanthine, read-out: KI^2 (non-competitive inhibition constant) (converted)): 6.24 µM
- Ki [2, 17]: 5.78 ± 0.48 µM
- Gross necropsy ([5]; after termination of the study): no changes in vital organs
- Organ weight as compared with the control groups ([5]; after termination of the study): No difference in organ weight
- Food intake as compared to allopurinol treated groups [5, 18]: marginally less
- Weekly food intake as compared to vehicle treated groups [5, 18]: decreased
- Changes in the initial and final body weight [5, 19]: No significant changes
- General behavioral toxicity [5, 19]: No differences in general behavioral toxicity

Structure (SMILES): Oc1ncnc2[nH]ncc12 [ALLOPURINOL, allopurinol]
- Potentiation of the antitumor and immunosuppressive properties of 6MP [6]: three to four
- activity at 0.5 µM [4, 13]: 83 ± 1.05%
- activity at 1 µM [4, 13]: 48%
- activity at 2.5 µM [4, 13]: 16%
- activity at 0.5 µM [4, 14]: 95 ± 1.09%
- activity at 1 µM [4, 14]: 68%
- activity at 2.5 µM [4, 14]: 30%
- Gross necropsy ([5]; mouse, in vivo): no changes in vital organs
- Organ weight as compared with the control groups ([5]; mouse, in vivo): No difference in organ weight
- Mortality [5, 19]: no mortality
- Substrate-induced enzymatic electron transfer / ROS generation on interaction with XOD [7]: led to substrate-induced enzymatic electron transfer via DCPIP

- IC50 [1, 10]: 6.79 ± 0.28 µM
- IC50 [1, 11]: 20.8 ± 0.84 µM
- IC50 ([1]; read-out: IC50, XOD inhibition, substrate 6MP (6MP to 6TUA), 10 μM 6MP, pH 7.4, 60 min reaction): 12.9 ± 0.69 µM
Structure (SMILES): Nc1ncnc2[nH]ncc12 [APP, 4-aminopyrazolo 3,4-d pyrimidine]
- Preferential inhibition of the 6MP hydroxylation over xanthine [1]: did not exhibit any preferential inhibition

Structure (SMILES): Nc1nc2nc[nH]c2c(=S)[nH]1 [APT, 2-amino-6-purinethiol]
- Discriminatory inhibition in tri-substrate simulative study [3]: discriminatory inhibition of the 6MP to 6TUA conversion and not hypoxanthine to uric acid conversion
- Difference in the IC50 value in the first and the late phases [1]: no such difference
- Whether the compound is an XOD substrate [1]: none were found to be XOD substrates
- IC50 [1, 10]: 7.28 ± 0.17 µM
- IC50 [1, 11]: 16.4 ± 0.21 µM
- IC50 [1, 12]: 2.57 ± 0.08 µM
- Inhibition of 6MP hydroxylation, bi-substrate reaction ([4]; inhibitor 5 μM): Almost complete inhibition
- Inhibition of xanthine hydroxylation, bi-substrate reaction ([4]; inhibitor 5 μM): little inhibition
- activity at 0.5 µM [4, 13]: 73 ± 2.5%
- activity at 1 µM [4, 13]: 66%
- activity at 2.5 µM [4, 13]: 25%
- activity at 0.5 µM [4, 14]: 96 ± 1%
- activity at 1 µM [4, 15]: 90%
- activity at 2.5 µM [4, 15]: 80%
- Mechanism of inhibition ([2]; substrate 6MP): competitive inhibition mechanism
- Ki [2, 16]: 1.3 ± 0.09 µM
- Mechanism of inhibition ([2]; substrate xanthine): Competitive
- Ki [2, 17]: 6.61 ± 0.28 µM
- Gross necropsy ([5]; mouse, in vivo): no changes in vital organs
- Organ weight as compared with the control groups ([5]; mouse, in vivo): No difference in organ weight
- Mortality [5, 19]: no mortality

Structure (SMILES): COc1cc(-c2cnn3c(=O)nc[n-]c23)ccc1[S+]([O-])c1ccccc1.[Na+] (stereo not drawn) [BOF-4272]
- Type of XOD inhibition [8]: mixed type of inhibition

Structure (SMILES): O=c1c(O)c(-c2ccccc2)oc2cc(O)cc(O)c12 [Galagin]
- Type of XOD inhibition [8]: mixed type of inhibition

Structure (SMILES): O=c1c(O)c(-c2ccc(O)cc2O)oc2cc(O)cc(O)c12 [Morin]
- Type of XOD inhibition [8]: mixed type of inhibition

Structure (SMILES): O=c1[nH]c(=O)c2nc[nH]c2[nH]1 [Xanthine, xanthine]
- Vmax (maximum reaction velocity) [2]: 114.54 ± 0.24 µM/min

Structure (SMILES): NNC(N)=O [semicarbazide]
- Inhibition of XOD and XDH in vivo [9]: less than 50%
